One assay deals with T. gondii tachyzoites. The settings on record: 24 h treatment at 3× EC50.
Assay [1] concerns Leishmania mexicana axenic amastigotes. Nature of the assay: Drug sensitivity assay, dose–response curves, L. mexicana. It counts as cell-based. The following applies: for EC50: axenic amastigotes, mean, n ≥ 3; for L. mexicana selectivity: relative to fibroblasts. From the text: (§1) Human fibroblasts, T. brucei, T. gambiense, P. falciparum, L. mexicana, and B. divergens were cultivated as described previously, and dose–response curves were obtained by their cultivation on 96 well plates in a 2-fold seriel dilution of the appropriate drug.

Assay [2] has as its system Trypanosoma gambiense bloodstream forms. Nature of the assay: Drug sensitivity assay, dose–response curves, T. gambiense. It counts as cell-based. The following applies: for EC50: bloodstream forms, mean, n ≥ 3; for T. gambiense selectivity: relative to fibroblasts.
Text: as §1

Assay [3] relates to Toxoplasma gondii tachyzoites (RH strain), intracellular stages. In words: T. gondii lytic cycle plaque assay in HFF monolayers. It counts as cell-based. The following applies: for EC50: intracellular stages, plaque assay in HFFs, 7 days, n ≥ 3; for T. gondii selectivity: relative to fibroblasts. Here is the method: T. gondii tachyzoites of the RH strain were routinely maintained through passages in a human foreskin fibroblasts (HFFs) monolayer (ATCC CRL-1634). HFFs and parasites were cultured in standard Dulbecco’s Modified Eagle Medium (DMEM), supplemented with 5% decomplemented fetal bovine serum (FBS), 2 mM L-glutamine, 100 U/mL penicillin, and 100 μg/mL streptomycin (Gibco) at 37 °C and with 5% CO2 in an incubator with a controlled atmosphere.
The lytic cycle of T. gondii tachyzoites was assessed by a plaque assay as described previously. Briefly, tachyzoites were allowed to invade monolayers of HFFs for 3 h before addition of the compounds or the DMSO vehicle and were subsequently cultivated for 7 days at 37 °C and 5% CO2. They were then fixed with 4% (w/v) paraformaldehyde (PFA, diluted in phosphate-buffered saline (PBS)) for 20 min and stained with a 0.1% crystal violet solution (V5265, Sigma-Aldrich), washed, and air-dried before imaging under an Olympus MVX10 microscope.
Figure S1. EC50 determination of selected compounds in Toxoplasma.
B) EC50 curves based on plaque
area measured from three independent plaque assays. Data are mean ± standard deviation. C)
vacuoles were counted for each con dition. Values represented are mean ± standard deviation of […]

The test system of assay [4] is T. brucei 427 bloodstream form mitochondria. Nature of the assay: Mitochondrial membrane potential in T. brucei (TMRE, flow cytometry). It counts as cell-based, Trypanosoma brucei. The settings on record: 24 h at 3× EC50. Here is the method: The mitochondrial membrane potential of T. brucei 427 bloodstream form was assessed using the fluorescent probe TMRE (Thermo Fisher Scientific) as described in ref . […] Untreated cells and cells preincubated with a 50 μM CCCP uncoupler for 30 min were used as negative and positive controls, respectively. Approximately 1 × 10^6 cells were incubated with 60 nM TMRE for 30 min, washed 1× with sterile PBS, and 5,000 events were measured on a Guava EasyCyte 8HT flow cytometer (Luminex) using a 488 nm excitation laser and a 583/26 nm detector. Median fluorescence was plotted against an untreated culture using Prism 8.0 (GraphPad Software), and statistical significance was determined using RM one-way ANOVA with Geisser–Greenhouse correction. The experiment was performed in three biologically independent replicates.
A general note: Flow cytometry measures light scatter and fluorescence of single cells or particles in a stream.

The subject of assay [5] is Babesia divergens intracellular stages. In words: Drug sensitivity assay, dose–response curves, B. divergens. The settings on record: for EC50: intracellular stages, mean, n ≥ 3; for B. divergens selectivity: relative to fibroblasts. It counts as cell-based.
Text: as §1

A further assay concerns T. gondii mitochondrion. Nature of the assay: Toxoplasma immunofluorescence assay of organelle morphology. It counts as cell-based, Toxoplasma gondii. The following applies: 24 h at 3× EC50; for morphology of the T. gondii mitochondrion: DFX at 60 nM. On the procedure:
For IFAs to assess organelle morphology, coverslips seeded with HFFs were infected with T. gondii tachyzoites, and 3 h later, compounds were added (at 3 times their respective EC50). Intracellular parasites and host cell monolayers were then fixed 24 h later with 4% (w/v) PFA (diluted in PBS) for 20 min. After fixation, cells were permeabilized with 0.3% (v/v) Triton X-100 (diluted in PBS) for 10 min. Coverslips were blocked with 2% (w/v) bovine serum albumin (BSA) for 1 h prior to immunolabeling with a primary antibody for 1 h. After 3 washes in PBS, a corresponding secondary antibody was incubated for 1 h. Coverslips were then incubated with 1 μg/mL of Hoechst stain for 5 min before 3 washes in PBS and, finally, mounted using Immu-Mount (Thermo Fisher) onto microscope slides. Primary antibodies used were prepared in 2% BSA (diluted in PBS) and used at the following concentrations: the apicoplast was stained using rabbit anti-PDH-E2 (1:500), the mitochondrion was stained using mouse anti-F1β ATPase (1:1000, gift of P. Bradley). Anti-mouse and anti-rabbit secondary antibodies were all from Thermo Fisher and were diluted at 1:4000. Image acquisition was performed with a Zeiss Axio Observer inverted microscope equipped with a Zeiss Axiocam 712 camera and 63×/1.4 or 100×/1.4 Oil Plan Achromat objectives. Images were processed with Zen Blue v3.6 software (Zeiss). Z-stack acquisitions were processed by a maximum-intensity orthogonal projection. Adjustments of brightness and contrast were applied uniformly, and paired images were acquired with the same exposure time. Quantifications of mitochondrial morphology were performed by microscopic observation of a series of at least 100 parasites, and data from three independent biological replicates was acquired and plotted using Prism 8.0 (GraphPad Software). Statistical significance was determined using one-way ANOVA with Tukey’s multiple-comparison test.

In assay [6] the test system is Trypanosoma brucei bloodstream forms. In words: Drug sensitivity assay, dose–response curves, T. brucei. It counts as cell-based. The following applies: for EC50: bloodstream forms, mean, n ≥ 3.
Text: as §1

The next assay concerns Human BJ Fibroblast. Nature of the assay: Drug sensitivity assay, dose–response curves, human BJ fibroblasts. It counts as cell-based. The following applies: mean, n ≥ 3.
Text: as §1

Assay [7] relates to Plasmodium falciparum intracellular stages. In words: Drug sensitivity assay, dose–response curves, P. falciparum. It counts as cell-based. The settings on record: for EC50: intracellular stages, mean, n ≥ 3; for P. falciparum selectivity: relative to fibroblasts.
Text: as §1

In assay [8] the test system is T. brucei 427 bloodstream forms, protein-bound iron. Nature of the assay: Iron distribution in T. brucei (55Fe, blue native electrophoresis, phosphor imaging). It counts as cell-based, Trypanosoma brucei. The settings on record: T. brucei preincubated with 55Fe; 8 h exposure; EC90 concentrations for 14 and 15. Here is the method:
The assay was performed as described in ref . T. brucei 427 bloodstream forms were grown in HMI-9 medium supplemented with 0.5 μM ^55Fe (29 600 MBq mg^–1) in the form of ferric citrate (1:20) and incubated for 24 h. […] Untreated cells were used as a control. After incubation, the cells were harvested by centrifugation and washed three times with NaCl–HEPES buffer (140 mM NaCl, 10 mM HEPES, pH 7.4). Cells were lysed by sonication in NaCl–HEPES buffer containing 1% digitonin and cOmplete EDTA-free protease inhibitor cocktail (Roche). Gels were vacuum-dried, autoradiographed for 5 days using a BAS-IP TR 2025 E tritium storage phosphor screen (GE Healthcare), and visualized with Typhoon FLA 7000 (GE Healthcare).

The test system of assay [9] is Toxoplasma tachyzoites mitochondrion. In words: Toxoplasma mitochondrial membrane potential (MitoTracker, cytometry and microscopy). It counts as cell-based, Toxoplasma gondii. The following applies: 24 h at 3× EC50; for T. gondii mitochondrial membrane potential, flow cytometric quantification of Mitotracker labeling: DFX at 60 nM; for Mitotracker staining of T. gondii, microscopic observation: FCCP as uncoupler control. Here is the method: We used the MitoTracker Deep Red FM fluorescent probe (Invitrogen) to assess the mitochondrial membrane potential in Toxoplasma tachyzoites. […] After another 24 h of culture at 37 °C and 5% CO2, Mitotracker labeling was performed as described in the protocol provided by the manufacturer, with a 45 min incubation at 37 °C and 5% CO2 of the reconstituted dye diluted to 1/1000 in culture medium. Parasites were then fixed for 30 min in 4% (w/v) PFA (diluted in PBS), washed twice in PBS, scraped, syringed (with a 25 G needle), filtered on a 40 μm membrane, and resuspended in 1 mL of PBS. Parasites were then analyzed with an Aurora spectral cytometer (Cytek), using a 633 nm excitation laser and a 665 nm detector. 10,000 events were recorded. Mean fluorescence was plotted against vehicle-treated culture parasites using Prism 8.0 (GraphPad Software), and statistical significance was determined using one-way ANOVA with Tukey’s multiple-comparison test. The experiment was performed for three biologically independent replicates. For the membrane depolarization control, parasites were treated with 10 μM FCCP for 30 min prior to and during incubation with the Mitotracker dye.
Intracellular parasites and the host cell monolayer were then fixed 24 h later with 4% (w/v) PFA (diluted in PBS) for 20 min, and after fixation, cells were permeabilized with 0.3% (v/v) Triton X-100 (diluted in PBS) for 10 min. Costaining with the anti-F1β ATPase mitochondrial marker was performed as described below.

“And” between values parts separate entries of the source, which are not always exact repeats. Equal entries are not always repeated.

Experimental for T. gondii tachyzoites: Parasites were allowed to invade an HFF monolayer on coverslips for 3 h before addition of the compounds (at 3 times their respective EC50) and left to grow for 24 h before being fixed and performing parasites immunodetection was by IFA with a mouse anti-SAG1 antibody, as described previously. The number of parasites per vacuole was counted and scored. Independent experiments were conducted 3 times, and 200 random vacuoles were counted for each condition.
Replication assay of T. gondii tachyzoites, which were allowed to invade HFF -coated coverslips,
then treated for 24 h with the compounds at 3 times the EC50 or DMSO vehicle, after which number
of parasites per vacuole was quantified for each condition and expressed as a percentage, 200
the compounds, using two -way ANOVA with Dunnett’s multiple comparison test.

As usually defined, the EC50 is the concentration needed to bring the measured effect to its halfway point. `O=C(NCCCCCCCCCC[P+](c1ccccc1)(c1ccccc1)c1ccccc1)c1ccc(-n2nc(-c3ccccc3O)nc2-c2ccccc2O)cc1.[Cl-]` [compound 14, triphenylphosphine-C10-DFX]: in the assay on T. gondii tachyzoites, the “impact on T. gondii replication (parasites per vacuole)” value is on record as “particularly strong”. Besides, in assay [1], the response was half-maximal at 52 nM (EC50) and the L. mexicana selectivity is on record as 33. Also, in assay [2], the EC50 is 10.4 nM and the T. gambiense selectivity was 165. For the same compound, in [3], a half-maximal response (EC50) required 17 nM and the T. gondii selectivity stood at 101. Moreover, the “mitochondrial membrane potential of T. brucei (relative to untreated)” value in assay [4] is recorded as “less than 50%”. Also, in assay [5], it took 41.2 nM to reach a half-maximal effect (EC50) and the B. divergens selectivity turned out to be 42. For the same compound, in the assay on T. gondii mitochondrion, the “quantified mitochondrial morphology change (fragmented/collapsed) by IFA” value was “caused the collapse of most T. gondii mitochondria” and the “morphology of the T. gondii mitochondrion” value is “altered the morphology of the organelle”. In assay [6], this compound had an EC50 of 4.2 nM. For the same compound, in [6] (listed as mitoDFX), the concentration for a half-maximal effect (EC50) came out at 4 nM. Moreover, the T. brucei selectivity in assay [6] (relative to human BJ fibroblast EC50, listed as mitoDFX) was greater than 300. In the assay on Human BJ Fibroblast, this compound gave an EC50 of 1710 nM. Besides, in [7], it took 54.8 nM to reach a half-maximal effect (EC50) and the P. falciparum selectivity was 31. Further, the “change in overall protein-bound iron distribution” value in [8] is listed as “neither mitoDFX nor the nonchelating compound 15 did cause any detectable change”. For the same compound, in assay [9], the “T. gondii mitochondrial membrane potential, flow cytometric quantification of Mitotracker labeling” value was “most impactful” and the “Mitotracker staining of T. gondii, microscopic observation” value was “strong decrease in Mitotracker staining”.

Regarding `CC(C)(C)OC(=O)NNc1ccc(C(=O)NCCCCCCCCCC[P+](c2ccccc2)(c2ccccc2)c2ccccc2)cc1.[Cl-]` [compound 15, triphenylphosphine-C10-NHCOBocFenylhydrazine], the half-maximal effective concentration (EC50) was 348 nM in assay [1]; 60 nM in [2]; 350 nM in assay [3]; 76.2 nM in [5]; 37 nM and 37.5 nM in assay [6]; 7400 nM in the assay with Human BJ Fibroblast. For the same compound, in assay [7], the midpoint of the response, the EC50, lay at 311 nM. In [1], this compound yielded a L. mexicana selectivity of 21. In addition, the T. gambiense selectivity in assay [2] is given as 122. Besides, the T. gondii selectivity in assay [3] is on record as 21. Also, in [4], the “mitochondrial membrane potential of T. brucei (relative to untreated)” value is given as “less than 50%”. In assay [5], this compound showed a B. divergens selectivity of 96. The “morphology of the T. gondii mitochondrion” value with T. gondii mitochondrion was “altered the morphology of the organelle”. Besides, the P. falciparum selectivity in assay [7] was 23. Further, in [8], the “change in overall protein-bound iron distribution” value is given as “neither mitoDFX nor the nonchelating compound 15 did cause any detectable change”. Also, in assay [9], the “T. gondii mitochondrial membrane potential, flow cytometric quantification of Mitotracker labeling” value is listed as “most impactful”. For the same compound, the “Mitotracker staining of T. gondii, microscopic observation” value in assay [9] is “strong decrease in Mitotracker staining”.

The values above are taken from PMC12797238 (ACS Infectious Diseases, 2025).
